Data taken from patent US9096515B2, “Methods of using cycloalkylmethylamine derivatives” (Reviva Pharmaceuticals, Inc., priority 2010, dated 2015).
Where two headings read alike, the source gives them in different places.

Columns and labels:
[1] = biological target: human recombinant transporter protein dopamine (DAT) (Homo sapiens (Human), UniProt Q01959); experiment: radioligand binding assay, dopamine transporter
Description: (§1) The monoamine transporters inhibitory activities of selected compounds cycloalkylmethylamine derivatives comprising Formula (I) are reported herein. The compounds were evaluated using well established radioligand binding assays protocols (Galli, A. et al., J. Exp. Biol. 1995, 198, 2197-2212; Giros, B. et al., Trends Pharmcol. Sci. 1993, 14, 43-49; Gu, H. et al., J. Biol. Chem. 1994, 269(10), 7124-7130; Shearman, L. P. et al, Am. J. Physiol., 1998, 275(6 Pt 1), C1621-1629; Wolf, W. A. et al., J. Biol. Chem. 1992, 267(29), 20820-20825). The human recombinant transporter proteins dopamine (DAT), norepinephrine (NET) and serotonin (SERT) were selected for the in vitro assays. The radioligand binding assays were carried out at 11 different test concentrations […] to 1 μM.
(§2) The assays were carried out in duplicates and the quantitative data are reported as Ki in the TABLE 1.

[2] = biological target: human recombinant transporter protein norepinephrine (NET) (Homo sapiens (Human), UniProt P23975); experiment: radioligand binding assay, norepinephrine transporter
Chain of human recombinant transporter protein norepinephrine (NET) (P23975 whole entry): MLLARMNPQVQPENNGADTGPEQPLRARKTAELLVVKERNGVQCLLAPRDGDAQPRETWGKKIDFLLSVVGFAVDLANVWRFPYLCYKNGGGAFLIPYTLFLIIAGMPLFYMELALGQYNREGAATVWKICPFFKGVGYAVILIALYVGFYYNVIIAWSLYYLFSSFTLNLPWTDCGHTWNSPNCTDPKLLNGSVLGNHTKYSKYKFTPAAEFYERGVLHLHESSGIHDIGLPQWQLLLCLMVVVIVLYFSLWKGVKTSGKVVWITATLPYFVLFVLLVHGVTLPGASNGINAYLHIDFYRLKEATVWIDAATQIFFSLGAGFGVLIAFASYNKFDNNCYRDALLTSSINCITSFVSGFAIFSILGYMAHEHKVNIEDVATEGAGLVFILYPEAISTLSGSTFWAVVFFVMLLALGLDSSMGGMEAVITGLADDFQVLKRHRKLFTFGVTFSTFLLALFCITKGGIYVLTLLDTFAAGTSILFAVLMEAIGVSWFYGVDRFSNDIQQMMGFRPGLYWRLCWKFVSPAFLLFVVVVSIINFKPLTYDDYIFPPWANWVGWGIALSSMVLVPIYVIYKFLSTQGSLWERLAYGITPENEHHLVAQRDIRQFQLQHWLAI
Description: as §1, §2

[3] = biological target: human recombinant transporter protein serotonin (SERT) (Homo sapiens (Human), UniProt P31645); experiment: radioligand binding assay, serotonin transporter
Description: as §1, §2

[4] = active metabolites of sibutramine; background statement; cited from earlier work
[5] = human recombinant DAT, 11 test concentrations 0.1 nm to 1 μM, duplicates, read-out: DAT Ki
[6] = human recombinant NET, 11 test concentrations 0.1 nm to 1 μM, duplicates, read-out: NET Ki
[7] = human recombinant SERT, 11 test concentrations 0.1 nm to 1 μM, duplicates, read-out: SERT Ki

Chain of human recombinant transporter protein dopamine (DAT) (Q01959 whole entry): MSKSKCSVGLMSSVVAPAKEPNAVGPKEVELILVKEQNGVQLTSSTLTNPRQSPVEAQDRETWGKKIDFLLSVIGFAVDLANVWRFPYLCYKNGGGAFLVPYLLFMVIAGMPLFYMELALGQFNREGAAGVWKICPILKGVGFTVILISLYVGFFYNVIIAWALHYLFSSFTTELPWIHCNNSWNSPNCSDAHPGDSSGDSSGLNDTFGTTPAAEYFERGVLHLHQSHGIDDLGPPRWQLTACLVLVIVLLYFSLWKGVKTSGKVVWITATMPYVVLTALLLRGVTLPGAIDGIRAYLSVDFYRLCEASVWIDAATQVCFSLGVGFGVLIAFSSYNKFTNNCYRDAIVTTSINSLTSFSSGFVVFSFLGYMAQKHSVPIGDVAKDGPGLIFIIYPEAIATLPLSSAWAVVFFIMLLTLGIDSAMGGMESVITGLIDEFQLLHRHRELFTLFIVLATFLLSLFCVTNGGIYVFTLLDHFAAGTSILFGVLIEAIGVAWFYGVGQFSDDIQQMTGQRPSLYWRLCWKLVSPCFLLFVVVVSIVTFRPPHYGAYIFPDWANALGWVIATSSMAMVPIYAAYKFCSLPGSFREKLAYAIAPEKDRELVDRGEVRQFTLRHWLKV

Q: Which Ki [1, 5] does the source give for “2-((1-(1-(3,4-Dichlorophenyl)cyclobutyl)-3-methylbutyl)amino)ethyl propionate [Compound 12q]” here?
A: 7.2 nM

Q: And the Ki [2, 6]?
A: 38.2 nM

Q: And the Ki [3, 7]?
A: 10.6 nM

Q: For CC(CCNCCCC(N)=O)CC1(c2ccc(Cl)c(Cl)c2)CCC1 (racemic) [33a -Racemic], which Ki [1, 5] is on record?
A: 1.5 nM

Q: And the Ki [2, 6]?
A: 50.1 nM

Q: And the Ki [3, 7]?
A: 8.1 nM

Q: For CCOc1ccc(C2(CC(C)CCNCCCC(N)=O)CCC2)cc1 (racemic) [33b -Racemic], which Ki [1, 5] is on record?
A: 472 nM

Q: What about the Ki [2, 6] of the same molecule?
A: > 10000 nM

Q: What about the Ki [3, 7] of the same molecule?
A: 5.49 nM

Q: What does the source list for C[C@@H](CCNCCCC(N)=O)CC1(c2ccc(Cl)c(Cl)c2)CCC1 (single isomer, unassigned) [33a -(R)-Isomer]?
A: Ki [1, 5]: 0.91 nM; Ki [2, 6]: 30.3 nM; Ki [3, 7]: 2.3 nM

Q: What does the source list for CCOc1ccc(C2(C[C@@H](C)CCNCCCC(N)=O)CCC2)cc1 (single isomer, unassigned) [33b -(R)-Isomer]?
A: Ki [1, 5]: 130 nM; Ki [2, 6]: 6520 nM; Ki [3, 7]: 2.79 nM

Q: With CCOc1ccc(C2(C[C@H](C)CCNCCCC(N)=O)CCC2)cc1 (single isomer, unassigned) [33b -(S)-Isomer] as the molecule, how does the Ki [1, 5] read?
A: 4030 nM

Q: And the Ki [2, 6]?
A: 1090 nM

Q: And the Ki [3, 7]?
A: 329 nM

Q: For CCOc1ccc(C2(C(CC(C)C)NCCOC(=O)CC)CCC2)cc1 (centres unmarked) [Compound 12u, 2-((1-(1-(4-Ethoxyphenyl)cyclobutyl)-3-methylbutyl)amino)ethyl propionate], which Ki [1, 5] is on record?
A: 80.4 nM

Q: And the Ki [2, 6]?
A: 2340 nM

Q: What about the Ki [3, 7] of the same molecule?
A: 5.7 nM

Q: With CCOC(=O)NCCNC(CC(C)C)C1(c2ccc(Cl)c(Cl)c2)CCC1 (centres unmarked) [Compound 21a, Ethyl (2-((1-(1-(3,4-dichlorophenyl)cyclobutyl)-3-methylbutyl)amino)ethyl)carbamate] as the molecule, how does the Ki [1] read?
A: 38.4 nM

Q: And the Ki [2]?
A: 13.4 nM

Q: And the Ki [3, 7]?
A: 1 nM

Q: Which Ki [1] does the source give for CCOC(=O)NCCNC(CC(C)C)C1(c2ccc(OCC)cc2)CCC1 (centres unmarked) [Compound 21b, Ethyl (2-((1-(1-(4-ethoxyphenyl)cyclobutyl)-3-methylbutyl)amino)ethyl)carbamate] here?
A: 159 nM

Q: What about the Ki [2] of the same molecule?
A: 1920 nM

Q: And the Ki [3]?
A: 2 nM

Q: For CCCC(=O)NCCNC(CC(C)C)C1(c2ccc(Cl)c(Cl)c2)CCC1 (centres unmarked) [Compound 31a, N-(2-((1-(1-(3,4-Dichlorophenyl)cyclobutyl)-3-methylbutyl)amino)ethyl)butyramide], which Ki [1] is on record?
A: 52.7 nM

Q: What about the Ki [2] of the same molecule?
A: 77.7 nM

Q: And the Ki [3, 7]?
A: 27.8 nM

Q: For CCCC(=O)NCCNC(CC(C)C)C1(c2ccc(OCC)cc2)CCC1 (centres unmarked) [Compound 31b, N-(2-((1-(1-(4-Ethoxyphenyl)cyclobutyl)-3-methylbutyl)amino)ethyl)butyramide], which Ki [1, 5] is on record?
A: 251 nM

Q: What about the Ki [2] of the same molecule?
A: 4730 nM

Q: What about the Ki [3] of the same molecule?
A: 25 nM

Q: For CNC(CC(C)C)C1(c2ccc(Cl)cc2)CCC1 (centres unmarked) [Compound M1], which elimination half-life [4] is on record?
A: 14 h

Q: Which elimination half-life [4] does the source give for CC(C)CC(N)C1(c2ccc(Cl)cc2)CCC1 (centres unmarked) [Compound M2] here?
A: 16 h
